# Laboratory results from PubChem BioAssay (NCI).
#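 In this assay, cells in 96-well plates receive the compound at five concentrations for 48 hours. Endpoints are linearly interpolated between the surrounding concentrations. GI50: concentration for 50% inhibition of growth. TGI denotes the concentration required for complete inhibition of growth.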
# Experiments:
# Experiment in all cases: NCI anticancer screen, dose series, 48 h
# BT-549 breast = system: BT-549 breast
# HS 578T breast = system: HS 578T breast
# MDA-MB-231 breast = system: MDA-MB-231 breast
# MDA-MB-435 = system: MDA-MB-435
# NCI/ADR-RES ovarian = system: NCI/ADR-RES ovarian
Structure (SMILES),GI50 (BT-549 breast),TGI (BT-549 breast),GI50 (HS 578T breast),TGI (HS 578T breast),GI50 (MDA-MB-231 breast),TGI (MDA-MB-231 breast),GI50 (MDA-MB-435),TGI (MDA-MB-435),GI50 (NCI/ADR-RES ovarian),TGI (NCI/ADR-RES ovarian)
c1cc(CNC23CC4CC(CC(C4)C2)C3)cc(C[N+](Cc2cccc(CNC34CC5CC(CC(C5)C3)C4)c2)(Cc2cccc(CNC34CC5CC(CC(C5)C3)C4)c2)Cc2cccc(CNC34CC5CC(CC(C5)C3)C4)c2)c1 (stereo not drawn),4.27 µM,11.6 µM,8.01 µM,49.4 µM,8.73 µM,31 µM,3.45 µM,8.81 µM,6.01 µM,19 µM
COC(=O)C1=CNC=C(C(=O)OC)C1C1=CC(=O)C(C)=CC1=O,18.2 µM,34.3 µM,25 µM,66.5 µM,2.78 µM,19.1 µM,15.9 µM,29.5 µM,16.5 µM,31.2 µM
C[C@@]12CC=C3c4nc(Nc5cccc(O)c5)sc4CC[C@]3(C)[C@H]1CC[C@]1(C)C(=O)CC[C@@H]21,1.61 µM,6.47 µM,2.43 µM,> 100 µM,3 µM,15 µM,–,–,3.1 µM,> 100 µM
O=C(N/N=C/c1ccc(Cl)cc1)c1ccc(C(F)(F)F)nc1Nc1cccc(C(F)(F)F)c1,2.72 µM,11.7 µM,2.98 µM,10.2 µM,2.22 µM,8.83 µM,3.17 µM,20.1 µM,1.96 µM,6.99 µM
CN1C/C=C\CCOc2cccc(c2)-c2ccnc(n2)Nc2cccc(c2)C1,0.0789 µM,0.393 µM,0.0641 µM,0.82 µM,0.0591 µM,0.859 µM,0.0624 µM,0.195 µM,0.0654 µM,1.45 µM
CCOC(=O)[C@@H](N)CCC(=O)N[C@@H](CSCc1ccccc1)C(=O)N[C@@H](C(=O)OCC)c1ccccc1,17.5 µM,33 µM,16.6 µM,47.3 µM,18.1 µM,34.1 µM,16.5 µM,32.4 µM,> 100 µM,> 100 µM
COC(=O)[C@H](C)NC(=O)NC(=O)NC(=O)CI,15 µM,28.6 µM,21.4 µM,54.1 µM,18.8 µM,37.9 µM,10.3 µM,23.5 µM,19.1 µM,43 µM
COc1cc2ncnc(Nc3ccc(C)c(O)c3)c2cc1OC,12.4 µM,> 25 µM,5.36 µM,18.8 µM,17.1 µM,> 25 µM,> 25 µM,> 25 µM,16.4 µM,> 25 µM
Oc1ccccc1C(Sc1nc2ccccc2s1)Sc1nc2ccccc2s1,–,> 100 µM,–,> 100 µM,–,> 100 µM,–,> 100 µM,–,> 100 µM
COC1=C(C)C(=O)c2c(c(COC(N)=O)c3n2CC2C3N2C)C1=O (stereo not drawn),–,0.167 µM,–,0.986 µM,–,0.409 µM,–,0.0921 µM,–,0.336 µM
Clc1ccc(C2=Nn3c(COc4ccccc4Cl)nnc3SC2)c(Cl)c1,18.8 µM,54.2 µM,15 µM,69 µM,18.5 µM,48.6 µM,20.1 µM,84.5 µM,> 100 µM,> 100 µM
Cc1ccc(C(=O)CN(/C=C/C(=O)C(F)(F)F)c2ccc(S(N)(=O)=O)cc2)cc1,58.9 µM,> 100 µM,55.3 µM,> 100 µM,> 100 µM,> 100 µM,> 100 µM,> 100 µM,62.9 µM,> 100 µM
CN1CCN(CCCOc2ccc3nc(Nc4ccc(Cl)c(C(F)(F)F)c4)ccc3c2)CC1,14.2 µM,27.7 µM,12.5 µM,32.1 µM,7.59 µM,23.1 µM,11.7 µM,24.2 µM,14.7 µM,33.2 µM
N=C1C(c2nc3ccccc3s2)=C(O)CN1c1cc(C(F)(F)F)ccc1Cl,43.4 µM,> 100 µM,35.7 µM,> 100 µM,12.1 µM,95.7 µM,4.14 µM,36.1 µM,7.45 µM,37.6 µM
CN1c2ccc(Cl)cc2C(=O)NC1c1ccc([N+](=O)[O-])s1 (stereo not drawn),–,34.8 µM,–,34.2 µM,–,33.1 µM,–,31.4 µM,–,35.3 µM
